# Experimental data taken from article PMC10146426, “Naturally Occurring Chalcones with Aggregation-Induced Emission Enhancement Characteristics” (Molecules, 2023).
# Like-named read-outs stand apart in the source and are kept apart here.
# Experiments:
# [1] = DPPH radical-scavenging activity assay; settings: for DPPH Radical Scavenging (%) after 30 min / DPPH Radical Scavenging (%) after 60 min: mean ± SD
# Protocol: 2,2-Diphenylpicrylhydrazyl (DPPH) was purchased from Sigma-Aldrich (Steinheim, Germany). DPPH radical-scavenging activity was determined according to the method described by Brand-Williams et al. using (+)-catechin (Sigma-Aldrich, Steinheim, Germany) as the positive control. The chalcone samples were previously dissolved in DMSO and MeOH at the molar concentration of 2 × 10^–3 M. The positive control sample was dissolved in DMSO at the same molar concentration. The DPPH stock solution was diluted 10× with methanol to obtain the concentration of 1 × 10^–4 M. The measurements: 70 μL of the sample was added to 4 mL of the DPPH solution, and the samples were left for 30 or 60 min at room temperature in the dark. The absorbance was recorded at 517 nm by s Varian Cary 50 spectrophotometer. The control was prepared as above without any sample.
# DPPH free-radical scavenging activity was calculated using the following Formula (2):(2) Scavenging activity [%]=[Absorbance of control−Absorbance of test sample]/Absorbance control×100 where the absorbance of control is the absorbance of DPPH radicals in the absence of compounds, and the absorbance of the test sample is the absorbance in the presence of the studied compound.
# [2] = molecular target: T1, butyrylcholinesterase (BuChE, E.C. 3.1.1.8, from equine serum) (Equus caballus, UniProt P81908); assay: BuChE inhibition (Ellman method); assay type: biochemical
# T1 construct: butyrylcholinesterase (BuChE, E.C. 3.1.1.8, from equine serum); purchased Sigma-Aldrich (Steinheim, Germany); host or cells: equine serum (natural source)
# Protocol: (§1) The inhibitory activities against AChE and BuChE of the prepared compounds were performed by means of the method previously developed by Ellman et al. using neostigmine as the reference compound [68]. This is based on the reaction of released thiocholine to give a coloured product with a chromogenic reagent. Seven different concentrations of the compounds in the range 10^−9–10^−3 M were measured at 412 nm. All the assays were performed in the 0.1 M NaH2PO4/Na2HPO4 buffer (pH = 8) using the Varian Cary 50 spectrophotometer. 5,5′-Dithio-bis(2-nitrobenzoic acid) (DTNB) was used to measure the anti-AChE activity. […] Briefly, 140 µL of 0.1 mM sodium phosphate buffer (pH 8.0), 20 µL of DTNB, 20 µL of the assay solution and 20 µL of the AChE/BuChE solution were added and incubated for 15 min at 25 °C. The reaction was then initiated by adding 10 µL of acetylthiocholine iodide or butylthiocholine iodide. Yellow anion (2-nitro-5-thiobenzoic acid) formation was recorded at 412 nm for 10 min. It was determined by preparing an identical solution of the enzyme in the absence of tested compounds (as the control). Control and inhibitor readings were corrected with a blank read. All operations were repeated three times. The inhibition properties are reported as the IC50 values, which were determined graphically from the inhibition curves of log inhibitor concentration vs. the percentage of inhibition. The IC50 values represent the concentration of the inhibitor required for 50% inhibition of the enzyme.
# [3] = molecular target: T2, Acetylcholinesterase (AChE, E.C. 3.1.1.7, from human erythrocytes) (Homo sapiens, UniProt P22303); assay: AChE inhibition (Ellman method); assay type: biochemical
# T2 construct: Acetylcholinesterase (AChE, E.C. 3.1.1.7, from human erythrocytes); purchased Sigma-Aldrich (Steinheim, Germany); host or cells: human erythrocytes (natural source)
# Protocol: as §1
# [4] = samples dissolved in DMSO (stock 2 × 10^−3 M), three experiments
# [5] = samples dissolved in MeOH (stock 2 × 10^−3 M)
# [6] = pH 8 phosphate buffer, 25 °C, n = 9, read-out: BuChE IC50 Mean ± SD
# [7] = pH 8 phosphate buffer, 25 °C, n = 9, read-out: AChE IC50 Mean ± SD
# T1 sequence (P81908 whole entry): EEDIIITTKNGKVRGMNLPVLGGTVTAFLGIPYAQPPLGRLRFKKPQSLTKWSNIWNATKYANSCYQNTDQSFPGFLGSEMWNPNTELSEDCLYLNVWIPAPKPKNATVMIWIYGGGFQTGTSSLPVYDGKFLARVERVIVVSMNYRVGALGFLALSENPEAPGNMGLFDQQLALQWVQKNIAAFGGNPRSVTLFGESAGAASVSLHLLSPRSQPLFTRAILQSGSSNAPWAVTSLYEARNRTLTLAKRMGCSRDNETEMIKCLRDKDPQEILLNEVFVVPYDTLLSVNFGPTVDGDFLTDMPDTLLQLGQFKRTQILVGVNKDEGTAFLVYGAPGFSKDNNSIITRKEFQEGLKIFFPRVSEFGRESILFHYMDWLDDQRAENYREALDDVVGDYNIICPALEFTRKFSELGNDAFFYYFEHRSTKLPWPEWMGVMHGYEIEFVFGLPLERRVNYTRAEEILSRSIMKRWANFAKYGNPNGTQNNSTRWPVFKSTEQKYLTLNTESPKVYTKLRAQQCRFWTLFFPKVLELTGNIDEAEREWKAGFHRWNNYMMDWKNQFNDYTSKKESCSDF
# T2 sequence (P22303 32-617 isoform P22303-2 limits assumed): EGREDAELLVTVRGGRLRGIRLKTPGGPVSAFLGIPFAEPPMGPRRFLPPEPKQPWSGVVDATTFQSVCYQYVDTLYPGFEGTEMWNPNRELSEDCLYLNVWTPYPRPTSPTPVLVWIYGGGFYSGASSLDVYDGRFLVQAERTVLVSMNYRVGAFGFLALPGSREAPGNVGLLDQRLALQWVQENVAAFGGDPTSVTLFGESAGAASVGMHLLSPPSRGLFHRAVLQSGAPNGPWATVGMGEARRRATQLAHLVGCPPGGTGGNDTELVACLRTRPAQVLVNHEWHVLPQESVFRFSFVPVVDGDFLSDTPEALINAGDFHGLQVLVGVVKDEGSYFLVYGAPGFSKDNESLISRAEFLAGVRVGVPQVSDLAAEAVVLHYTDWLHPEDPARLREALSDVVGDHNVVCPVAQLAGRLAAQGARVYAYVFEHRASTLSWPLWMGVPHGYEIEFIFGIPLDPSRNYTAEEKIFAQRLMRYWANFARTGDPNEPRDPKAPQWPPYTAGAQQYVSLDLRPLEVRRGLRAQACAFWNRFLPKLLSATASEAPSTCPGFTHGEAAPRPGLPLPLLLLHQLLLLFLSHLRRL
Structure (SMILES),"DPPH Radical Scavenging (%) after 30 min [1, 4] [%]","DPPH Radical Scavenging (%) after 30 min ([1]; samples dissolved in DMSO (stock 2 × 10^−3 M), three experiments, listed as licochalcone A)","DPPH Radical Scavenging (%) after 30 min [1, 5] [%]","DPPH Radical Scavenging (%) after 60 min [1, 5] [%]","DPPH Radical Scavenging (%) after 60 min ([1]; samples dissolved in MeOH (stock 2 × 10^−3 M), listed as licochalcone A)",DPPH radical scavenging (%) ([1]; solvent and time not stated),IC50 [2] [µM],IC50 [3] [µM],"IC50 [2, 6] [µM]","IC50 [3, 7] [µM]",inhibitory properties towards AChE ([3]; result in words)
"C=CC(C)(C)c1cc(/C=C/C(=O)c2ccc(O)cc2)c(OC)cc1O [LIC, licochalcone A]",29.24 ± 0.70,~ 29%,26.50 ± 0.92,29.60 ± 0.98,~ 29%,29,42.28 ± 0.06,23.41 ± 0.02,–,–,–
"CC(C)=CCc1c(O)ccc(C(=O)/C=C/c2ccc(O)cc2)c1O [IBC, isobavachalcone]",2.36 ± 0.07,–,0.61 ± 0.01,1.03 ± 0.06,–,–,–,–,43.05 ± 0.16,35.48 ± 0.01,–
"CN(C)C(=O)Oc1cccc([N+](C)(C)C)c1 [Neostygmine, neostigmine bromide, reference compound]",–,–,–,–,–,–,0.03 ± 0.01,–,–,–,–
"COc1cc(O)cc(O)c1C(=O)/C=C/c1ccccc1 [CA, cardamonin]",2.09 ± 0.05,–,0.79 ± 0.07,1.33 ± 0.14,–,–,75.29 ± 0.41,67.87 ± 0.01,–,–,–
"Oc1cc(O)c2c(c1)O[C@H](c1ccc(O)c(O)c1)[C@@H](O)C2 [(+)-catechin, reference compound]",94.14 ± 0.44,–,–,–,–,–,–,–,–,–,–
"COc1cc(O)c(CC=C(C)C)c(O)c1C(=O)/C=C/c1ccc(O)cc1 [XN, xanthohumol]",7.99 ± 0.05,–,4.34 ± 0.05,6.72 ± 0.30,–,–,–,–,65.79 ± 0.34,40.81 ± 0.04,–
"COc1ccc(/C=C/C(=O)c2c(O)cc(OC)cc2OC)cc1 [HCH, 2′-hydroxy-4,4′,6′-trimethoxychalcone]",2.09 ± 0.03,–,0.30 ± 0.06,0.35 ± 0.05,–,–,–,–,76.5 ± 3.03,> 100,did not show any inhibitory properties
